In PMC5151175 (Journal of medicinal chemistry, 2016):
Entries after “also recorded” stand apart in the source; their conditions may differ.

How the values were obtained:
[1] = test system: HIV-1 integrase; conditions: cited from earlier work
[2] = test system: HIV in MT-4 cells; conditions: cited from earlier work; for IC50: read-out: IC50, anti-HIV activity in MT-4 cells
[3] = human, in vivo; cited from earlier work
[4] = test system: NL4-3 Env-mediated cell–cell fusion; experiment: fusion assay; format: cell-based, HIV-1; conditions: average of two independent tests
[5] = test system: NL4-3 infection of TZM-bl cells; experiment: TZM-bl assay; format: cell-based, HIV-1; conditions: at 2 µM; average of two tests
[6] = test system: HIV-1/NL4-3; format: cell-based; conditions: for IC50 NL4-3: wild-type HIV-1/NL4-3 replication, mean ± SD of three separate experiments, NS = no selective anti-HIV activity (CC50/IC50 < 5)
[7] = test system: NL4-3/V370A; format: cell-based, HIV-1; conditions: IC50(NL4-3/V370A)/IC50(NL4-3) ratio
[8] = in vitro metabolic; format: in vitro ADME; conditions: human, microsomes
[9] = test system: HIV replication in MT-2 cell; conditions: read-out: IC50, HIV replication in MT-2 cells; cited from earlier work

For `O=C(/C=C/c1ccc(O)c(O)c1)O[C@@H]1C[C@](O)(C(=O)O)C[C@@H](OC(=O)/C=C/c2ccc(O)c(O)c2)[C@H]1O` [compound 8, 3,5-Dicaffeoylquinic acid], the “HIV-1 integrase inhibitory activity” value [1] is given as “active against HIV-1 integrase”.

For `O=C(/C=C/c1cc(O)c(O)cc1[N+](=O)[O-])O[C@H](Cc1cc(O)c(O)cc1[N+](=O)[O-])C(=O)O` [compound 6, 6′,6″-Dinitrorosmarinic acid], the HIV-1 integrase inhibition [1] is listed as “potent HIV-1 integrase inhibition” and the “anti-HIV activity in MT-4 cells” value [2] is listed as “moderate anti-HIV activity”.

In the case of `C=C(C)[C@@H]1CC[C@]2(C(=O)O)CC[C@]3(C)[C@H](CC[C@@H]4[C@@]5(C)CC[C@H](OC(=O)CC(C)(C)C(=O)O)C(C)(C)[C@@H]5CC[C@]43C)[C@@H]12` [compound 2, 3-O-(3′,3′-dimethylsuccinyl)-betulinic acid], the “elimination half-life t1/2” value [3] is given as 56.3 to 69.5 h, the “inhibition of NL4-3 Env-mediated cell–cell fusion” value [4] is given as “no activity” and the “inhibition of NL4-3 infection of TZM-bl cells” value (“inhibition … of TZM-bl cells” for short) [5] is given as “no inhibition”.

For (−)-erythro-7′-methylcarolignan E [11b], the IC50 [2] is given as 5.3 µM.

For `C=C(C)[C@@H]1CC[C@]2(C(=O)N3CCNCC3)CC[C@]3(C)[C@H](CC[C@@H]4[C@@]5(C)CC[C@H](OC(=O)CC(C)(C)C(=O)O)C(C)(C)[C@@H]5CC[C@]43C)[C@@H]12` [compound 20], the “fold less active than 2 against NL4-3” value ([6]; compared with 2) was 8 fold.

For `C=C(C)[C@@H]1CC[C@]2(C(=O)N3CCN(C(=O)/C=C/c4ccc5c(c4)OCO5)CC3)CC[C@]3(C)[C@H](CC[C@@H]4[C@@]5(C)CC[C@H](OC(=O)CC(C)(C)C(=O)O)C(C)(C)[C@@H]5CC[C@]43C)[C@@H]12` [18c], the “RFC (resistance fold change)” value [7] was 7.89, the “inhibition of NL4-3 Env-mediated cell–cell fusion” value [4] was “no activity; also recorded: did not inhibit” and the “inhibition … of TZM-bl cells” value [5] was “no inhibition; also recorded: no activity”. The microsomal CLint [8] was 54 µL/min/mg.

In the case of `O=C(/C=C/c1ccc(O)c2c1[C@H](C(=O)O)[C@@H](c1ccc(O)c(O)c1)O2)O[C@H](Cc1ccc(O)c(O)c1)C(=O)O` [compound 7, (+)-Lithospermic acid], the “HIV-1 integrase inhibitory activity” value [1] is given as “submicromolar range”.

In the case of (+)-erythro-7′-methylcarolignan E [11a], the IC50 [2] is listed as 6.3 µM.

For L-Chicoric acid [compound 9], the IC50 [9] is given as 4.2 µM.

For `C=C(C)[C@@H]1CC[C@]2(C(=O)NCCCCCCCNC(C)=O)CC[C@]3(C)[C@H](CC[C@@H]4[C@@]5(C)CC[C@H](O)C(C)(C)[C@@H]5CC[C@]43C)[C@@H]12` [A43D], the “inhibition of NL4-3 Env-mediated cell–cell fusion” value [4] was “strongly inhibited” and the “inhibition … of TZM-bl cells” value [5] was “totally inhibited”.

With `O=C(O)/C=C/c1ccc(O)c(O)c1` [compound 5, 3,4-dihydroxycinnamic acid] the “IC50 NL4-3” value [6] was “no selectivity”.

In the case of `O=C(/C=C/c1ccc2c(c1)OCO2)N1CCNCC1` [14c], the “IC50 NL4-3” value [6] is reported as “inactive”.
